In the assay the target is T1, ERα (Homo sapiens, UniProt P03372).
T1 construct: host or cells: MCF7
T1 sequence (P03372 1-595): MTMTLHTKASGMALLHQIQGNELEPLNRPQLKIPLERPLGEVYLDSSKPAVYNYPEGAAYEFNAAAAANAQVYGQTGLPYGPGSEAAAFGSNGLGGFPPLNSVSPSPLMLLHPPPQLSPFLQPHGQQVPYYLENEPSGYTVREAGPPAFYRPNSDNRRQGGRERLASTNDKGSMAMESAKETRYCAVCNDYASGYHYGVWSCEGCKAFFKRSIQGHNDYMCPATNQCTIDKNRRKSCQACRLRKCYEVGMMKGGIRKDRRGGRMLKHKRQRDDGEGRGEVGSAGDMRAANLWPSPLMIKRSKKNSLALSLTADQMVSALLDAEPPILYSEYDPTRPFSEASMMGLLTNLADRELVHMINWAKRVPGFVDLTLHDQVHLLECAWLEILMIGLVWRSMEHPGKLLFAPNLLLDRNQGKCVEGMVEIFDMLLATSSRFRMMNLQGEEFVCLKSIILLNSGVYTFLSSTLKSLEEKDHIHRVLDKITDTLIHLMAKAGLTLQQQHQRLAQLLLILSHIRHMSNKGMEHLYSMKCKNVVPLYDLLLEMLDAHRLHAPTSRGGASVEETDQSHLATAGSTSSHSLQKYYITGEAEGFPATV
The assay can be described thus: Estrogen receptor degradation activity: breast cancer cell ERα in cell western assay (MCF7 cells). It counts as cell-based. Particulars: for % Degradation At 0.3 μM: 4 hours, relative to fulvestrant 0.1 μM positive control; for DC50 / IC50: 4 hours post compound addition, concentration which degrades 50% of the estrogen receptor; for DC50: read-out: Degradation IC50. An outline of the steps:
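Compounds were applied to MCF7 cells in stripped-serum, phenol red-free medium for 4 h at final 0.3–0.0000018 μM, with fulvestrant (0.1 μM) as control. Value: IC50 (nM) for 50% ERα degradation.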

With `O=C(O)c1cc2c(cc1Cl)C(c1ccc(CC3CN(CCCF)C3)cc1)=C(c1ccc(Cl)cc1Cl)CCC2` [Example 248, 2-chloro-8-(2,4-dichlorophenyl)-9-(4-((1-(3-fluoropropyl)azetidin-3-yl)methyl)phenyl)-6,7-dihydro-5H-benzo[7]annulene-3-carboxylic acid], the “% Degradation At 0.3 μM” value was 90% and the DC50 stood at 2.2 nM.

Take `Cc1c(C2=C(c3ccc(CC4CN(CCC(F)F)C4)cc3)c3ccc(C(=O)O)cc3CCC2)ccc(Cl)c1F` [Example 292, 8-(4-chloro-3-fluoro-2-methylphenyl)-9-(4-((1-(3,3-difluoropropyl)azetidin-3-yl)methyl)phenyl)-6,7-dihydro-5H-benzo[7]annulene-3-carboxylic acid]: the “% Degradation At 0.3 μM” value is reported as 93% and the DC50 came to 0.4 nM.

Consider `O=C(O)c1ccc2c(c1)CCCC(c1ccccc1F)=C2c1ccc(CC2CN(CCCF)C2)cc1` [Example 35, 8-(2-fluorophenyl)-9-(4-((1-(3-fluoropropyl)azetidin-3-yl)methyl)phenyl)-6,7-dihydro-5H-benzo[7]annulene-3-carboxylic acid], for which the “% Degradation At 0.3 μM” value was found to be 91% and the DC50 worked out at 0.4 nM.

For the compound `COc1c(Cl)cccc1C1=C(c2ccc(CC3CN(CCCF)C3)cc2)c2ccc(C(=O)O)cc2CCC1` [Example 334, 8-(3-chloro-2-methoxyphenyl)-9-(4-((1-(3-fluoropropyl)azetidin-3-yl)methyl)phenyl)-6,7-dihydro-5H-benzo[7]annulene-3-carboxylic acid], the “% Degradation At 0.3 μM” value came to 91% and the DC50 stood at 0.4 nM.

As for `O=C(O)c1ccc2c(c1)CCCC(CC1CCC1)=C2c1ccc(CC2CN(CCCF)C2)cc1` [Example 294, 8-(cyclobutylmethyl)-9-(4-((1-(3-fluoropropyl)azetidin-3-yl)methyl)phenyl)-6,7-dihydro-5H-benzo[7]annulene-3-carboxylic acid], the “% Degradation At 0.3 μM” value was found to be 92% and the IC50 was determined as 0.2 nM.

`Cc1c(F)cccc1C1=C(c2ccc(CC3CN(CCCF)C3)cc2)c2ccc(C(=O)O)cc2CCC1` [Example 28, 8-(3-fluoro-2-methylphenyl)-9-(4-((1-(3-fluoropropyl)azetidin-3-yl)methyl)phenyl)-6,7-dihydro-5H-benzo[7]annulene-3-carboxylic acid]: the “% Degradation At 0.3 μM” value is given as 93% and the DC50 is 0.4 nM.

In the case of `O=C([O-])c1ccc2c(c1)CCCC(C1=C[C@@H]3CCC[C@@H]3C1)=C2c1ccc(CC2CN(CCCF)C2)cc1.[Na+]` (relative stereo) [Example 299, sodium 9-(4-((1-(3-fluoropropyl)azetidin-3-yl)methyl)phenyl)-8-(cis-1,3a,4,5,6,6a-hexahydropentalen-2-yl)-6,7-dihydro-5H-benzo[7]annulene-3-carboxylate], the “% Degradation At 0.3 μM” value came out at 90% and the DC50 was 0.7 nM.

For the compound `CC1CCc2cc(C(=O)O)ccc2C(c2ccc(CC3CN(CCCF)C3)cc2)=C1c1ccc(Cl)cc1` (single isomer, unassigned) [Example 327, 8-(4-chlorophenyl)-9-(4-((1-(3-fluoropropyl)azetidin-3-yl)methyl)phenyl)-7-methyl-6,7-dihydro-5H-benzo[7]annulene-3-carboxylic acid], the “% Degradation At 0.3 μM” value worked out at 86% and the DC50 came to 4.7 nM.

Take `Oc1c(F)cc2c(c1F)CCCC(c1ccc(Cl)cc1Cl)=C2c1ccc(CC2CN(CCCF)C2)cc1` [Example 305, 8-(2,4-dichlorophenyl)-2,4-difluoro-9-(4-((1-(3-fluoropropyl)azetidin-3-yl)methyl)phenyl)-6,7-dihydro-5H-benzo[7]annulen-3-ol]: the “% Degradation At 0.3 μM” value is on record as 85% and the DC50 was 1.2 nM.

Regarding `Cl.O=C(O)c1ccc2c(c1)CCCC(c1cc(F)ccc1C(F)(F)F)=C2c1ccc(CC2CN(CCCF)C2)cc1` [Example 332, 8-(5-fluoro-2-(trifluoromethyl)phenyl)-9-(4-((1-(3-fluoropropyl)azetidin-3-yl)methyl)phenyl)-6,7-dihydro-5H-benzo[7]annulene-3-carboxylic acid hydrochloride], the “% Degradation At 0.3 μM” value stood at 85% and the DC50 turned out to be 0.4 nM.

On to `Cc1cccc(C2=C(c3ccc(CC4CN(CCCF)C4)cc3)c3ccc(C(=O)O)cc3CCC2)c1Cl` [Example 30, 8-(2-chloro-3-methylphenyl)-9-(4-((1-(3-fluoropropyl)azetidin-3-yl)methyl)phenyl)-6,7-dihydro-5H-benzo[7]annulene-3-carboxylic acid], for which the “% Degradation At 0.3 μM” value was determined as 94% and the DC50 came out at 0.4 nM.

Turning to `Cl.O=C(O)c1ccc2c(c1)CCCC(c1ccc(C(F)(F)F)cc1)=C2c1ccc(CC2CN(CCCF)C2)cc1` [Example 318, 9-(4-((1-(3-fluoropropyl)azetidin-3-yl)methyl)phenyl)-8-(4-(trifluoromethyl)phenyl)-6,7-dihydro-5H-benzo[7]annulene-3-carboxylic acid hydrochloride], the “% Degradation At 0.3 μM” value worked out at 94% and the DC50 was 0.6 nM.

With `CC1CCc2cc(C(=O)O)ccc2C(c2ccc(CC3CN(CCCF)C3)cc2)=C1c1ccc(F)c(F)c1` (racemic) [Example 326, 8-(3,4-difluorophenyl)-9-(4-((1-(3-fluoropropyl)azetidin-3-yl)methyl)phenyl)-7-methyl-6,7-dihydro-5H-benzo[7]annulene-3-carboxylic acid], the “% Degradation At 0.3 μM” value is reported as 91% and the DC50 was 0.7 nM.

As to `O=C(O)c1ccc2c(c1)CCCC(c1cccc(F)c1C(F)(F)F)=C2c1ccc(CC2CN(CCCF)C2)cc1` [Example 232, 8-(3-fluoro-2-(trifluoromethyl)phenyl)-9-(4-((1-(3-fluoropropyl)azetidin-3-yl)methyl)phenyl)-6,7-dihydro-5H-benzo[7]annulene-3-carboxylic acid], the “% Degradation At 0.3 μM” value is on record as 88% and the IC50 amounted to 0.1 nM.

As to `Cl.O=C(O)c1ccc2c(c1)CCCC(c1cccc(F)c1Cl)=C2c1ccc(CC2CN(CCCF)C2)cc1` [Example 9, 8-(2-chloro-3-fluorophenyl)-9-(4-((1-(3-fluoropropyl)azetidin-3-yl)methyl)phenyl)-6,7-dihydro-5H-benzo[7]annulene-3-carboxylic acid], the “% Degradation At 0.3 μM” value stood at 92% and the DC50 is 0.3 nM.

`COc1ccc(C2=C(c3ccc(CC4CN(CCCF)C4)cc3)c3ccc(C(=O)O)cc3CCC2)cn1` [Example 18, 9-(4-((1-(3-fluoropropyl)azetidin-3-yl)methyl)phenyl)-8-(6-methoxypyridin-3-yl)-6,7-dihydro-5H-benzo[7]annulene-3-carboxylic acid]: the “% Degradation At 0.3 μM” value came out at 95% and the DC50 was 1.6 nM.

On to `Cl.O=C(O)c1ccc2c(c1)CCCC(c1cccc3c1CCC3(F)F)=C2c1ccc(CC2CN(CCCF)C2)cc1` [Example 54, 8-(1,1-difluoro-2,3-dihydro-1H-inden-4-yl)-9-(4-((1-(3-fluoropropyl)azetidin-3-yl)methyl)phenyl)-6,7-dihydro-5H-benzo[7]annulene-3-carboxylic acid hydrochloride], for which the “% Degradation At 0.3 μM” value amounted to 94% and the DC50 was found to be 0.6 nM.

The IC50 is the concentration at which inhibition is half-maximal. Lower therefore signals greater potency.
